Assay results reported in ChEMBL document CHEMBL1127708, “Aromatase inhibitors. Syntheses and structure-activity studies of novel pyridyl-substituted indanones, indans, and tetralins” (J Med Chem, 1994).

How the values were obtained:
Aromatase = biological target: T1, Aromatase (Rattus norvegicus, UniProt P22443)
T1 sequence (P22443 whole entry): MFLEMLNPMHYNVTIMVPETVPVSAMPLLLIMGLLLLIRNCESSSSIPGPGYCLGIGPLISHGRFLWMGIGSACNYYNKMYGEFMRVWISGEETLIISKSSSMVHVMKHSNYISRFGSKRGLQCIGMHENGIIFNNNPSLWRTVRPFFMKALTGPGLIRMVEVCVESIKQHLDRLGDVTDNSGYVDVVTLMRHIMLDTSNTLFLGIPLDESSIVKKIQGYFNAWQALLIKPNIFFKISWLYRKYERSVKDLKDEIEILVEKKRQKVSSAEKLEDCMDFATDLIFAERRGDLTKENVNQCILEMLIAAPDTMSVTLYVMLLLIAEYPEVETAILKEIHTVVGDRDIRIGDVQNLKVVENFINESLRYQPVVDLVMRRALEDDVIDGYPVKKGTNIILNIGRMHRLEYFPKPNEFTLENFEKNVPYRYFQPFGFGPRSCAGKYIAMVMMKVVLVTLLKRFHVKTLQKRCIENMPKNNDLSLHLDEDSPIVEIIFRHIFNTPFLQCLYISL

Rattus norvegicus [1] = species on record: Rattus norvegicus; format: functional; settings: dose 10.3 mg/kg
Rattus norvegicus [2] = species on record: Rattus norvegicus; format: functional; settings: dose 10.3 mg/kg; remark: listed apart in the source
Rattus norvegicus [3] = species on record: Rattus norvegicus; format: functional; settings: dose 10.3 mg/kg; remark: listed apart in the source
Rattus norvegicus [4] = species on record: Rattus norvegicus; format: functional; settings: dose 10.3 mg/kg; remark: listed apart in the source
Rattus norvegicus [5] = species on record: Rattus norvegicus; format: functional; settings: dose 10.3 mg/kg; remark: listed apart in the source
Rattus norvegicus [6] = species on record: Rattus norvegicus; format: functional; settings: dose 10.3 mg/kg; remark: listed apart in the source
Rattus norvegicus [7] = species on record: Rattus norvegicus; format: functional; settings: dose 10.3 mg/kg; remark: listed apart in the source
Rattus norvegicus [8] = species on record: Rattus norvegicus; format: functional; settings: dose 10 mg/kg
Rattus norvegicus [9] = species on record: Rattus norvegicus; format: functional; settings: dose 10 mg/kg; remark: listed apart in the source
Rattus norvegicus [10] = species on record: Rattus norvegicus; format: functional; settings: dose 10 mg/kg; remark: listed apart in the source
Rattus norvegicus [11] = species on record: Rattus norvegicus; format: functional; settings: dose 10 mg/kg; remark: listed apart in the source
Rattus norvegicus [12] = species on record: Rattus norvegicus; format: functional; settings: dose 10 mg/kg; remark: listed apart in the source
Rattus norvegicus [13] = species on record: Rattus norvegicus; format: functional; settings: dose 10 mg/kg; remark: listed apart in the source
Rattus norvegicus [14] = species on record: Rattus norvegicus; format: functional; settings: dose 10 mg/kg; remark: listed apart in the source
Rattus norvegicus [15] = species on record: Rattus norvegicus; format: functional; settings: dose 10 mg/kg; remark: listed apart in the source
Rattus norvegicus [16] = species on record: Rattus norvegicus; format: functional
Rattus norvegicus [17] = species on record: Rattus norvegicus; format: functional; remark: listed apart in the source
Rattus norvegicus [18] = species on record: Rattus norvegicus; format: functional; remark: listed apart in the source
Rattus norvegicus [19] = species on record: Rattus norvegicus; format: functional; remark: listed apart in the source
Rattus norvegicus [20] = species on record: Rattus norvegicus; format: functional; remark: listed apart in the source
Rattus norvegicus [21] = species on record: Rattus norvegicus; format: functional; remark: listed apart in the source

SMILES: COc1ccc2c(c1)CC(Cc1ccncc1)C2=O (stereo not drawn)
- Effect (Aromatase): 150

SMILES: Oc1cccc2c1CCC(Cc1ccncc1)C2 (stereo not drawn)
- Change of tumor area (Rattus norvegicus [1]): 16%
- Change of tumor area (Rattus norvegicus [2]): 24%
- No. of tumors (Rattus norvegicus [3]): 4
- Change of tumor area (Rattus norvegicus [4]): 123%
- Change of tumor area (Rattus norvegicus [5]): 41%
- Change of tumor area (Rattus norvegicus [6]): 19%
- No. of tumors (Rattus norvegicus [7]): 37

SMILES: O=C1c2ccc(O)cc2CC1Cc1ccncc1 (stereo not drawn)
- Effect (Aromatase): 160

SMILES: CCC1(c2ccc(N)cc2)CCC(=O)NC1=O (stereo not drawn) [AMINOGLUTETHIMIDE]
- Change of tumor area (Rattus norvegicus [8]): 54%
- Change of tumor area (Rattus norvegicus [9]): 17%
- No. of tumors (Rattus norvegicus [10]): 35
- Change of tumor area (Rattus norvegicus [11]): 23%
- Change of tumor area (Rattus norvegicus [12]): 4%
- Of tumors (Rattus norvegicus [13]): 6%
- No. of tumors (Rattus norvegicus [14]): 7

SMILES: CCC(=O)OC1CCC2C3CCC4=CC(=O)CCC4C3CCC12C (stereo not drawn)
- Change of tumor area (Rattus norvegicus [15]): 141%
- Change of tumor area (Rattus norvegicus [16]): 19%
- Change of tumor area (Rattus norvegicus [17]): 25%
- No. of tumors (Rattus norvegicus [18]): 12
- Change of tumor area (Rattus norvegicus [19]): 36%
- Change of tumor area (Rattus norvegicus [20]): 19%
- No. of tumors (Rattus norvegicus [21]): 36
